In patent US20050124634A1, “1,4-dihydropyridine compounds, pharmaceutical compositions, and methods for the treatment of cardiovascular disease” (MYOGEN, INC., priority 2003, published 2005):

How the values were obtained:
[1] = tested on: α-MyHC protein levels; test: α-MyHC cytoblot assay in neonatal rat ventricular myocytes (NRVM); type: cell-based; conditions: NRVM, 3 days
Description: FIG. 1 Concentration-dependent effect of Compound 1 on α-MyHC protein levels in the cytoblot assay. NRVM are cultured for 3 days in serum-free medium in the presence of differing amounts of Compound 1. At the end of the culture period, NRVM are fixed and analyzed for α-MyHC protein levels using the BA-G5 monoclonal antibody specific for α-MyHC. Results are collected as RLU using a Packard Fusion Plate reader, and normalized to the signal from samples cultured in the absence of compound (control, set to 100%).
Preparation and culture of neonatal rat ventricular myocytes (NRVM) was performed by removing hearts from 1-3 day old rat neonatal pups, along with the atria and lungs. The ventricles were cut into smaller pieces and digested 3 times with collagenase for 20-30 min at 37° C. The myocytes were then separated from other cell types using a Percoll gradient. The myocyte layer was collected, washed 2 times, and plated on tissue culture grade 10 cm Petri dishes for 1-2 hrs. The non-adherent cells (myocytes) were removed and plated in Costar clear view 96 well plates coated with 0.2% gelatin for at least 2 hrs. The gelatin solution was removed, and the myocytes were resuspended in DMEM high glucose media (Mediatech) containing 10% charcoal/dextran treated FBS (Hyclone) and 1% Penicillin-Streptomycin-Glutamine (PSG, Gibco). Ten thousand NRVM were plated per well in a 100 μl volume, and incubated overnight at 37° C. in 5% CO2 in air. The following day, the media was replaced with 100 μl of serum-free DMEM high glucose medium supplemented with PSG and 0.3% Nutridoma-SP (Roche).
Compounds were reconstituted in DMSO at 30 mM, and aliquots were stored at −20° C. A 1:1000 dilution was prepared in serum-free DMEM medium supplemented with PSG and 0.3% Nutridoma, and sonicated for 5 min at room temperature. After sonication, additional 3 fold dilutions were prepared in the same medium. Diluted compound was then added to the NRVM cultures in a volume of 100 μl. A 100 mM thyroid hormone stock solution (T3, Calbiochem) was prepared in 100 mM NaOH and added at a final concentration of 3 nM in DMEM medium supplemented with PSG and 0.3% Nutridoma-SP (Roche). NRVM were cultured for 3 days before detection of α-myosin heavy chain (α-MyHC) protein levels in the cytoblot assay.
For the α-MyHC cytoblot assay, NRVM cultures were analyzed for α-MyHC protein levels after 3 days of incubation. NRVM were washed 2 times with PBS, fixed with methanol for 30 min at 4° C., and washed an additional 2 times with PBS. Blocking solution consisting of PBS with 1% bovine serum albumin (BSA, Fisher Biotech) was added for 1 hr at room temperature before addition of a saturating amount of supernatant containing an α-MyHC specific antibody for 60 min at room temperature (BA-G5 hybridoma, ATTC). Two washes were performed with PBS/1% BSA, and a 1:500 dilution of HRP-goat anti-mouse IgG (Southern Biotech) diluted in PBS/1% BSA was added for 60 min at room temperature. Excess antibody was removed with 3 PBS washes, and a chemiluminescent substrate was added (Pierce SuperSignal West Pico Chemiluminscent Substrate) for 5 min before quantitation on a Packard Fusion Plate Reader.
As shown above in Table 1, Compound 1 increased α-MyHC protein levels as determined by an α-MyHC cytoblot assay. Compound 1 was added to NRVM at concentration ranging from 3 nM to 30 μM. After 3 days of incubation with NRVM, α-MyHC protein levels were detected in the cytoblot assay and quantitated (FIG. 1). […] An increase in α-MyHC protein levels was first detected beginning at 30 nM, with a maximal response observed at 3 μM. In six independent experiments, the concentration of Compound 1 that gave a half-maximal response was on average 60 nM.

[2] = tested on: α-MyHC protein; test: α-MyHC protein levels in NRVM by Western blotting; type: cell-based, rat; conditions: NRVM stimulated 3 days; Compound 1 10 nM to 10 μM
Description: FIG. 2 Effect of Compound 1 on α-MyHC protein levels as detected by Western blotting. NRVM are stimulated with Compound 1 at different concentrations for 3 days. Protein extracts are prepared, proteins are separated by SDS-PAGE electrophoresis, transferred to PVDF membrane, and detected with an anti-α-MyHC monoclonal antibody.
As an independent measure of changes in α-MyHC protein levels, NRVM stimulated with Compound 1 were analyzed for α-MyHC protein levels by Western blotting. Protein extracts prepared from NRVM stimulated with a range of concentrations of Compound 1 from 10 nM to 10 μM were separated by SDS-PAGE and transferred to PVDF membrane. Levels of α-MyHC protein were detected by Western blotting using the same anti-α-MyHC monoclonal antibody used in the cytoblot assay. […] This experiment verified that the changes in α-MyHC protein detected in the cytoblot assay were also evident by Western blotting.

[3] = tested on: secretion of atrial natriuretic factor; test: Anti-hypertrophic activity in NRVM, ANF ELISA (ANF secretion); type: cell-based, rat; conditions: Rattus norvegicus, read-out: IC50 of the ANF ELISA (antihypertrophic activity)
Description: Anti-hypertrophic Activity of Racemic Compound 1 and Purified Enantiomers of Compound 1. Neonatal rat ventricular myocytes (NRVM) were isolated from 1 to 3 day-old Sprague-Dawley rats using enzymatic digestion and myocyte enrichment techniques. NRVM were cultured in serum-containing media for 18 hours. For the continuation of culture, serum-free media was used. Hypertrophy of NRVM was induced using pharmacological stimuli, including phenylephrine, endothelin-1, and […]. Hypertrophic responses were determined using methods including the following: measurement of total cellular protein; secretion of atrial natriuretic factor; determination of cell volume; determination of the expression of so-called fetal genes such as atrial natriuretic factor, beta-myosin heavy chain and alpha-skeletal actin. ANF secretion was the most sensitive assay for measuring hypertrophy, and the IC50 of the ANF ELISA was the measurement used to determine antihypertrophic activity.

Compound: CC(=O)C1=C(C)NC(SCC(=O)c2cccc([N+](=O)[O-])c2)=C(C#N)C1c1ccccc1Cl (racemic) [Compound 1]
- % increase of a-MyHC over baseline at 10 mM Cpd ([1]; 10 mM Cpd): 206%
- concentration at which an increase in α-MyHC protein levels was first detected ([1]; tested 3 nM to 30 μM): 30 nM
- concentration at which maximal response was observed ([1]; tested 3 nM to 30 μM): 3 µM
- EC50 ([1]; Rattus norvegicus, Ventricular myocyte, 72 h, average of six independent experiments, read-out: concentration that gave a half-maximal response (α-MyHC protein levels)): 60 nM
- α-MyHC protein levels by Western blotting [2]: increasing amounts of α-MyHC protein were observed with increasing amounts of Compound 1
- IC50 [3]: 427 nM
